In ChEMBL document CHEMBL6078689, “Discovery of novel biaryl urea derivatives against IL-1β release with low toxicity based on NEK7 inhibitor” (Eur J Med Chem, 2025):
Active and inactive are the calls of the source. No cut-off for these calls is given here.

Tests used:
[1] = Cytotoxicity against C57BL/6 mouse BMDM cells assessed as cell viability at 0.1 uM incubated for 4 hrs by CCK-8 assay relative to control; format: toxicity, cell-based; settings: bone marrow-derived macrophages (BMDM cells), read-out: Activity
BMDM [2] = assay: Inhibition of NLRP3 inflammasome activation in LPS-induced C57BL/6 mouse BMDM cells assessed as reduction in IL-1beta release at 0.1 uM preincubated with LPS for 1 hrs followed by compound addition and measured after 2 hrs by ELISA relative to control; format: cell-based
[3] = Cytotoxicity against C57BL/6 mouse BMDM cells assessed as cell viability incubated for 4 hrs by CCK-8 assay; format: toxicity, cell-based; settings: bone marrow-derived macrophages (BMDM cells)
[4] = Selectivity index, ratio of CC50 for C57BL/6 mouse BMDM cells to IC50 for Inhibition of NLRP3 inflammasome activation in LPS-induced C57BL/6 mouse BMDM cells assessed as reduction in IL-1beta release; format: toxicity, cell-based; settings: bone marrow-derived macrophages (BMDM cells), read-out: Ratio CC50/IC50
[5] = Inhibition of NLRP3 inflammasome activation in LPS-induced C57BL/6 mouse BMDM cells assessed as reduction in IL-1beta release preincubated with LPS for 1 hrs followed by compound addition and measured after 2 hrs by ELISA; format: cell-based; settings: C57BL/6, BMDM
[6] = target: Serine/threonine-protein kinase Nek7 (Homo sapiens, UniProt Q8TDX7); assay: Inhibition of N-terminal GST-tagged full-length recombinant human NEK7 extracted from baculovirus infected in Sf9 cells preincubated for 20 mins followed by [32P]-ATP addition and measured after 2 hrs
[7] = target: NLRP3-NEK7 (Mus musculus) (UniProt Q8R4B8+Q9ES74); assay: Inhibition of NLRP3/NEK7 protein-protein interaction in LPS-induced C57BL/6 mouse BMDM cells by co-immunoprecipitation based Western blot analysis; format: cell-based
BMDM [8] = assay: Binding affinity to NEK7 in LPS-primed C57BL/6 mouse BMDM cells assessed as thermal stabilization preincubated with LPS for 1 hrs followed by compound addition and incubated for 2 hrs under 48 to 53 degreeC by CETSA; format: cell-based

NLRP3-NEK7 (Mus musculus), sequence (Q8R4B8 whole entry, looked up): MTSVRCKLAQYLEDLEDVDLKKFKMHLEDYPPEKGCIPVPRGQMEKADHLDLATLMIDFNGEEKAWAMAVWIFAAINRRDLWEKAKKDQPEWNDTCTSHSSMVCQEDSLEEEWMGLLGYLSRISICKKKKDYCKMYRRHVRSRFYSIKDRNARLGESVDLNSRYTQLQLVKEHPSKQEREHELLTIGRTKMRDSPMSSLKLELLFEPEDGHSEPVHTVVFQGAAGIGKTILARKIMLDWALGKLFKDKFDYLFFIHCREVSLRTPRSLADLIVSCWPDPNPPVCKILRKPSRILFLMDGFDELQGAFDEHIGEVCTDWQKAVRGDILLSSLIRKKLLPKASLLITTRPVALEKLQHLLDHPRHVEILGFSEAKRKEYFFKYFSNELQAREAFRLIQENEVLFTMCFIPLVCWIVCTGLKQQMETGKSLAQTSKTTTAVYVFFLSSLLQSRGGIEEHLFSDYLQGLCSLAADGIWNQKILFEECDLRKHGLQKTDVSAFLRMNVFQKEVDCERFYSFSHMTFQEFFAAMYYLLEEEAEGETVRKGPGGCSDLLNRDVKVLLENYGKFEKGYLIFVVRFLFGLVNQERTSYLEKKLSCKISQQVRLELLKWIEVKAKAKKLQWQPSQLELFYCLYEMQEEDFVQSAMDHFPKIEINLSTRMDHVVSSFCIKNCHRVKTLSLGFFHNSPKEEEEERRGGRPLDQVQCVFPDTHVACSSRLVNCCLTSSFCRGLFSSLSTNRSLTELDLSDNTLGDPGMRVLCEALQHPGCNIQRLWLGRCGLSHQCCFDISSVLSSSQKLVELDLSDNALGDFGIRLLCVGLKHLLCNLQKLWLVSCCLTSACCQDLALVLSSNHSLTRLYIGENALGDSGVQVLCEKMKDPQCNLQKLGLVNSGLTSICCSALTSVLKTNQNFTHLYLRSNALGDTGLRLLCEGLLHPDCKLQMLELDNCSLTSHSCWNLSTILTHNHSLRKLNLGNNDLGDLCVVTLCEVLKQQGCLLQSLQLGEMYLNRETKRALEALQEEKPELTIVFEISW
NLRP3-NEK7 (Mus musculus), sequence (Q9ES74 whole entry, looked up): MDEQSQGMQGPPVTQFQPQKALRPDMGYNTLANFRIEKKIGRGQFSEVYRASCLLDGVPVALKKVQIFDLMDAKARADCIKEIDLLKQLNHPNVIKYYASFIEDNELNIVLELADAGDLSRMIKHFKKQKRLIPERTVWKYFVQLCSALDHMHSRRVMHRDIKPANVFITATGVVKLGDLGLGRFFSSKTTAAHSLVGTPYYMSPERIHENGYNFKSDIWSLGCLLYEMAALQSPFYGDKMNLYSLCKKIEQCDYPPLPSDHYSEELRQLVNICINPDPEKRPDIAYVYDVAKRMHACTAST
Serine/threonine-protein kinase Nek7, sequence (Q8TDX7 whole entry): as the sequence (Q9ES74 whole entry, looked up) above, with T14P, S52A, D150E, I273M, I285V, A286T, T302S counted along it

| SMILES | viability at 4 h, 0.1 µM [1] [%] | inhibition (BMDM [2]) [%] | further results |
| --- | --- | --- | --- |
| CN1CCN(Cc2ccc(NC(=O)Nc3ccc(-c4cccnc4N)cc3F)cc2C(F)(F)F)CC1 | 65 | – | – |
| CN1CCN(Cc2ccc(NC(=O)Nc3ccc(-c4ccc(N)cn4)cc3F)cc2C(F)(F)F)CC1 | 104 | – | – |
| CNc1ccc(-c2ccc(NC(=O)Nc3ccc(CN4CCN(C)CC4)c(C(F)(F)F)c3)c(F)c2)cn1 | 95.5 | 41.5 | – |
| CN1CCN(Cc2ccc(NC(=O)Nc3ccc(-c4nccnc4N)cc3F)cc2C(F)(F)F)CC1 | 107 | 28.2 | – |
| CN1CCN(Cc2ccc(NC(=O)Nc3ccc(-c4cc5ccccc5nc4N)cc3F)cc2C(F)(F)F)CC1 | 86 | – | – |
| COc1ccc(-c2ccc(NC(=O)Nc3ccc(CN4CCN(C)CC4)c(C(F)(F)F)c3)c(F)c2)cn1 | 104 | – | – |
| CN1CCN(Cc2ccc(NC(=O)Nc3ccc(-c4ccc(N)nc4)cc3F)cc2C(F)(F)F)CC1 | 86 | 82.3 | CC50 at 4 h [3]: 247 nM; selectivity ratio [4]: 8.26; IC50 [5]: 30 nM |
| CC(C)(O)c1coc(S(=O)(=O)NC(=O)Nc2c3c(cc4c2CCC4)CCC3)c1 | – | 66.7 | CC50 at 4 h [3]: > 10000 nM; selectivity ratio [4]: > 118; IC50 [5]: 85 nM |
| CN1CCN(Cc2ccc(NC(=O)Nc3ccc(-c4ccnc(N)n4)cc3F)cc2C(F)(F)F)CC1 | 78 | 25.7 | – |
| CN1CCN(Cc2ccc(NC(=O)Nc3ccc(-c4cn(C5CC5)c5ncnc(N)c45)cc3F)cc2C(F)(F)F)CC1 | 17.2 | – | IC50 [6]: < 100 nM |
| CN1CCN(Cc2ccc(NC(=O)Nc3ccc(-c4nc(N)cc5ccccc45)cc3F)cc2C(F)(F)F)CC1 | 122 | 30.6 | – |
| CC(=O)Nc1ccc(-c2ccc(NC(=O)Nc3ccc(CN4CCN(C)CC4)cc3)c(F)c2)cn1 | 94.9 | – | – |
| CC(=O)Nc1ccc(-c2ccc(NC(=O)Nc3ccc(CN4CCN(C)CC4)c(C(F)(F)F)c3)c(F)c2)cn1 | 98.3 | 90.3 | CC50 at 4 h [3]: 3840 nM; inhibition [7]: Active; Activity (BMDM [8]): Active; Compound Is Capable Of Binding To Nek7; selectivity ratio [4]: 80.3; IC50 [5]: 48 nM |
| CN1CCN(Cc2ccc(NC(=O)Nc3ccc(-c4cnc5cccnn45)cc3F)cc2C(F)(F)F)CC1 | 91.4 | -9.39 | – |
| CN1CCN(Cc2ccc(NC(=O)Nc3ccc(-c4ccc(O)nc4)cc3F)cc2C(F)(F)F)CC1 | 106 | – | – |
| CN1CCN(Cc2ccc(NC(=O)Nc3ccc(-c4c(N)ncc5ccccc45)cc3F)cc2C(F)(F)F)CC1 | 61.1 | – | – |
| CN1CCN(Cc2ccc(NC(=O)Nc3ccc(-c4cccc(N)n4)cc3F)cc2C(F)(F)F)CC1 | 109 | – | – |
| CN1CCN(Cc2ccc(NC(=O)Nc3ccc(-c4ccnc(N)c4)cc3F)cc2C(F)(F)F)CC1 | 112 | 3.67 | – |
| CN1CCN(Cc2ccc(NC(=O)Nc3ccc(-c4nc(N)c5ccccc5n4)cc3F)cc2C(F)(F)F)CC1 | 108 | – | – |
| CC(=O)Nc1ccc(-c2ccc(NC(=O)Nc3cccc(C(F)(F)F)c3)c(F)c2)cn1 | 96.4 | -7.98 | – |
| CN1CCN(Cc2ccc(NC(=O)Nc3ccc(-c4cncnc4N)cc3F)cc2C(F)(F)F)CC1 | 106 | -1.08 | – |
| CN1CCN(Cc2ccc(NC(=O)Nc3ccc(-c4cnc(N)c5ccccc45)cc3F)cc2C(F)(F)F)CC1 | 108 | -7.76 | – |
| CC(=O)Nc1ccc(-c2ccc(NC(=O)c3ccc(CN4CCN(C)CC4)c(C(F)(F)F)c3)c(F)c2)cn1 | 92.6 | 0 | – |
| CC(=O)Nc1ccc(-c2ccc(C(=O)Nc3ccc(CN4CCN(C)CC4)c(C(F)(F)F)c3)c(F)c2)cn1 | 90.4 | – | – |
| CN1CCN(Cc2ccc(NC(=O)Nc3ccc(-c4ncc(N)cn4)cc3F)cc2C(F)(F)F)CC1 | 71.8 | – | – |
